In publication PMC4594923, “Food Polyphenols Fail to Cause a Biologically Relevant Reduction of COX-2 Activity” (PLoS ONE, 2015):
Marks after values point to notes of the source that are not given here.

Columns and labels:
[1] = test system: arachidonic acid (AA) cascade; assay: kidney tissue oxylipin/PG levels in LPS induced sepsis in mice; details: kidney tissue 24 h after LPS treatment, LPS +, mean;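 note: male C57BL/6N mice challenged with LPS, kidney taken 24 h later, oxylipins quantified by LC-MS after solid-phase extraction of tissue homogenate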
[2] = test system: arachidonic acid (AA) cascade; assay: liver tissue oxylipin/PG levels in LPS induced sepsis in mice; assay type: in vivo, C57BL/6N mice; details: liver tissue 24 h after LPS treatment;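 note: male C57BL/6N mice pretreated i.p. with polyphenols at 100 mg/kg bw or vehicle before LPS, liver oxylipins measured by LC-MS after solid-phase extraction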

## O=c1cc(-c2ccc(O)cc2)oc2cc(O)cc(O)c12 [Apigenin, apigenin]
[1]
  1a,1b-dihomo-PGF2α: 1.3 nM
  4,5-DiHDPE: 15 nM
  4-HDHA: 19 nM
  5(6)-EpETrE: 130^* nM
  5,6-DiHETrE: 1.6^* nM
  5-HEPE: 1.0 nM
  5-HETE: 12 nM
  5-oxo-ETE: 28 nM
  6-keto-PGF1α: 55 nM
  7,8-DiHDPE: 1.6 nM
  7-HDHA: 3.5 nM
  8(9)-EpETrE: 32^† nM
  8,9-DiHETrE: 1.6 nM
  8-HDHA: 20^† nM
  8-HETE: 3.4 nM
  8-iPF2a: 1.8 nM
  9(10)-EpODE: 13 nM
  9(10)-EpOME: 150 nM
  9(10)-Epoxystearic acid: 77^* nM
  9,10,13-TriHOME: 4.8 nM
  9,10-DiHODE: 1.1 nM
  9,10-DiHOME: 15^† nM
  9,10-Dihydroxystearic acid: 57 nM
  9,12,13-TriHOME: 27 nM
  9-HETE: 3.5 nM
  9-HODE: 150 nM
  9-HOTrE: 3.2 nM
  9-oxo-ODE: 46 nM
  10(11)-EpDPE: 82^‡ nM
  10,11-DiHDPE: 1.9 nM
  10-HDHA: 3.6 nM
  11(12)-EpETE: 4.4 nM
  11(12)-EpETrE: 80^† nM
  11,12-DiHETrE: 2.1 nM
  11-HDHA: 5.7 nM
  11-HETE: 16 nM
  12(13)-EpODE: 6.0 nM
  12(13)-EpOME: 110 nM
  12,13-DiHOME: 32^* nM
  12-HEPE: 1.1 nM
  12-HETE: 10 nM
  13(14)-EpDPE: 65^† nM
  13,14-DiHDPE: 3.0 nM
  13,14-dihydro-15-keto-PGF2α: 2.7 nM
  13-HDHA: 6.9 nM
  13-HODE: 120 nM
  13-HOTrE: 3.3 nM
  13-oxo-ODE: 8.5 nM
  14(15)-EpETE: 5.4^‡ nM
  14(15)-EpETrE: 60^† nM
  14,15-DiHETE: 0.7 nM
  14,15-DiHETrE: 5.9 nM
  14-HDHA: 8.6 nM
  15(16)-EpODE: 65 nM
  15(S)-HETrE: 4.6 nM
  15,16-DiHODE: 13 nM
  15-HETE: 22 nM
  15-oxo-ETE: 8.2 nM
  16(17)-EpDPE: 61^‡ nM
  16,17-DiHDPE: 8.2 nM
  16-HDHA: 6.3 nM
  17(18)-EpETE: 6.2^‡ nM
  17,18-DiHETE: 2.7 nM
  17-HDHA: 17 nM
  18-HEPE: 1.5 nM
  19(20)-EpDPE: 92^‡ nM
  19,20-DiHDPE: 59 nM
  20-HDHA: 18 nM
  20-HEPE: 5.2 nM
  EKODE: 40 nM
  PGD2: 13 nM
  PGE1: 4.7 nM
  PGE2: 110 nM
  PGF1α: 2.8 nM
  PGF2α: 33 nM
  TXB2: 2.0 nM
[1]; < = below LOQ
  5,6-DiHETE: < 0.25 nM
  5-iPF2α: < 1.0 nM
  8(9)-EpETE: 2.9^† nM
  12,13-DiHODE: < 2.0 nM
  13,14-dihydro-15-keto-PGE1: 0.41 nM
  20-HETE: < 2.7 nM
  PGD1: < 0.50 nM
[1]; second listing of PGF2α (r9)
  PGF2α: 33 nM
[2]; mean
  4,5-DiHDPE concentration: 74 nM
  4-HDHA concentration: 12 nM
  5(6)-EpETrE concentration: 97 nM
  5,6-DiHETE concentration: < 0.30 nM
  5,6-DiHETrE concentration: 5.1 nM
  5-HEPE concentration: 2.8 nM
  5-HETE concentration: 2.8 nM
  5-iPF2α concentration: 1.1 nM
  5-oxo-ETE concentration: 15 nM
  6-keto-PGF1α concentration: 32 nM
  7,8-DiHDPE concentration: 5.2 nM
  7-HDHA concentration: 3.2 nM
  8(9)-EpETE concentration: 2.1 nM
  8(9)-EpETrE concentration: 20 nM
  8,9-DiHETE concentration: 2.3 nM
  8,9-DiHETrE concentration: 10 nM
  8,15-DiHETE concentration: < 0.80 nM
  8-HDHA concentration: 20 nM
  8-HEPE concentration: 0.98 nM
  8-HETE concentration: 8.5 nM
  8-iPF2α concentration: 2.1 nM
  9(10)-EpODE concentration: 11 nM
  9(10)-EpOME concentration: 120 nM
  9(10)-Epoxystearic acid concentration: 86 nM
  9,10,13-TriHOME concentration: 6.4^* nM
  9,10-DiHODE concentration: 8.6 nM
  9,10-DiHOME concentration: 69 nM
  9,10-Dihydroxystearic acid concentration: 53 nM
  9,12,13-TriHOME concentration: 41 nM
  9-HETE concentration: 5.2 nM
  9-HODE concentration: 370 nM
  9-HOTrE concentration: 8.1 nM
  9-oxo-ODE concentration: 120 nM
  10(11)-EpDPE concentration: 30 nM
  10,11-DiHDPE concentration: 9.8 nM
  10-HDHA concentration: 5.7 nM
  11(12)-EpETE concentration: 4.4 nM
  11(12)-EpETrE concentration: 47 nM
  11,12-DiHETE concentration: 2.9 nM
  11,12-DiHETrE concentration: 18 nM
  11-HDHA concentration: 5.5 nM
  11-HETE concentration: 21 nM
  12(13)-EpODE concentration: 5.0 nM
  12(13)-EpOME concentration: 99 nM
  12,13-DiHODE concentration: 5.7 nM
  12,13-DiHOME concentration: 140^† nM
  12-HEPE concentration: 27 nM
  12-HETE concentration: 120 nM
  13(14)-EpDPE concentration: 24 nM
  13,14-DiHDPE concentration: 11 nM
  13,14-dihydro-15-keto-PGE1 concentration: 0.57 nM
  13,14-dihydro-15-keto-PGF2α concentration: 7.0 nM
  13-HDHA concentration: 10 nM
  13-HODE concentration: 370 nM
  13-HOTrE concentration: 18 nM
  13-oxo-ODE concentration: 16 nM
  14(15)-EpETE concentration: 3.1 nM
  14(15)-EpETrE concentration: 38 nM
  14,15-DiHETE concentration: 7.4 nM
  14,15-DiHETrE concentration: 43 nM
  14-HDHA concentration: 68 nM
  15(16)-EpODE concentration: 24 nM
  15(S)-HETrE concentration: 9.0 nM
  15,16-DiHODE concentration: 49 nM
  15-HEPE concentration: 3.4 nM
  15-HETE concentration: 31 nM
  15-oxo-ETE concentration: 4.0 nM
  16(17)-EpDPE concentration: 23 nM
  16,17-DiHDPE concentration: 22 nM
  16-HDHA concentration: 6.0 nM
  17(18)-EpETE concentration: 4.2 nM
  17,18-DiHETE concentration: 15 nM
  17-HDHA concentration: 21 nM
  18-HEPE concentration: 3.3 nM
  19(20)-EpDPE concentration: 33 nM
  19,20-DiHDPE concentration: 110 nM
  20-HDHA concentration: 22 nM
  20-HEPE concentration: 15 nM
  20-HETE concentration: 7.2 nM
  EKODE concentration: 28 nM
  PGD1 concentration: 1.2 nM
  PGD2 concentration: 34 nM
  PGE1 concentration: 2.3 nM
  PGE2 concentration: 15 nM
  PGF1α concentration: 2.8 nM
  TXB2 concentration: 17 nM
  TxB3 concentration: 0.89 nM
  dihomo-PGF2α concentration: 3.6 nM
[2]; mean (first listing, r6)
  PGF2α concentration: 26 nM
[2]; mean (second listing, r9)
  PGF2α concentration: 26 nM
